The record followed here is a melting point compilation (Tetko et al.; mined from patent text by program, amines drawn as free bases though some values may be those of a salt).

The term melting point denotes the temperature, or range, at which the solid turns liquid.

Bounds are passed on as bounds.

`O=C(Nc1cccc2c(Cn3cnc4ccccc43)ccnc12)c1c(Cl)cccc1Cl` came in with a melting point of 248 to 253 °C.

`CC(=O)OC1CCC2(C)C(CCC3C4CCC(C(C)=O)C4(C)CC(O)C32Cl)C1` (stereo unspecified): the melting point was 175 to 179 °C. `COc1cc(-c2n[nH]c(SC)c2C)c(F)cc1Cl`: the melting point was 95 to 100 °C.

`CN(C)S(=O)(=O)n1cc(I)cn1`: the melting point was determined as 32 °C. `CC(C)(C)OC(=O)C(CSCc1ccc(-c2ccc(-c3cccc4c3oc3ccccc34)cc2)cc1)C(=O)O` (stereo unspecified) gave a melting point of 205 to 206 °C.

As to `COc1cc2c(cc1O)CCN(C(=O)c1cc(OC)c(OC)c(OC)c1)C2=O`, the melting point lay within 175 to 176 °C. `N#CC(Cc1c[nH]cn1)(c1ccccc1)c1ccc(Cl)cc1Cl` (stereo unspecified) showed a melting point of 215 to 218 °C. Compound `Cc1cc(-n2ccnc2)c2cccc(OCc3c(Cl)ccc(S(=O)(=O)N4CCC[C@H]4C(=O)O)c3Cl)c2n1` had a melting point of 172 °C.

For `Cn1c2ccc(Br)cc2c2cc(C(=O)N3CCOCC3)sc21`, the melting point is 184 °C. `c1ccc(CN2CCC3(CC2)SC(c2ccccc2)c2ccccc23)cc1` (stereo unspecified) returned a melting point of 144 to 145 °C. As to `Cc1ccc(C(=O)N2CCN(CC3(C)Cc4c(C)c(N)c(C)c(C)c4O3)CC2)cc1` (stereo unspecified), the melting point lay within 131 to 133 °C. Compound `CC(=O)N1CCCc2c(c3ccc(-n4ccc(-c5ccc(C(F)(F)F)nc5)cc4=O)cc3n2C)C1` displayed a melting point of 156 to 162 °C. In the case of `N[C@H](Cc1cccc(OC(F)(F)C(F)F)c1)[C@@H](O)c1csc(-c2ccccc2)n1` (racemic), the melting point was in the range of 128 to 130 °C. `COC(=O)c1ccc(CN2CCCc3cc4c(cc32)C(C)(C)CCC4(C)C)cc1` returned a melting point of 173 to 175 °C.

`CCOC(=O)c1ccc(-n2cnnc2S)cc1` yielded a melting point of 194 to 196 °C.

In the case of `Fc1cnc(OC(c2ccnc3cc(Cl)ccc23)C(F)(F)F)nc1` (stereo unspecified), the melting point came out at 92 °C. With `CCCOC(C)c1ccc(-c2ccc(O)cc2)cc1` (single isomer, unassigned; (+)), the melting point lay in the range of 123 to 125 °C.

On to `c1ccc(Cn2nc(-c3ccncc3)nc2-c2ccncc2)cc1`, for which the melting point was 136 to 138 °C. `CN1CC[C@]2(c3cccc(O)c3)CC=CC[C@@H]2C1` (relative stereo) gave a melting point of 159 °C. With `C=CCON=C(C(=O)O)c1nc(NC=O)sc1Cl` the figure was 166 to 167 °C. The result for `CC12CCC3c4cc(O)c(OCc5ccccc5)cc4CCC3C1CCC2OCc1ccccc1` (stereo unspecified) reads 117 to 118 °C. On to `CCOC(=O)C(C)C(NC(C)=O)C(C(C)=O)C(=O)OC` (stereo unspecified), for which the melting point is 93 to 96 °C.

For the compound `O=C(O)C=C1COc2ccccc2C1=O`, the melting point is 134 to 136 °C. As for `N#Cc1c[nH]c(-c2ccc(F)cc2)c1`, the melting point lay in the range of 158 to 159 °C. Consider `Cc1c(-c2ccccc2)oc2c(C(=O)NCC(C)N3CCCCC3)cccc2c1=O` (stereo unspecified), for which the melting point was in the range of 106 to 108 °C. As to `CC(Sc1nc(N)cc(C(F)(F)F)n1)c1cc2ccoc2cn1` (stereo unspecified), the melting point lay within 180 to 182 °C.

Compound `Cc1ccc2cccc(OCc3c(Cl)ccc(S(=O)(=O)NCc4ccccc4)c3Cl)c2n1` registered a melting point of 140 to 142 °C.

The compound `CC(=O)NC1CCC2C(C1)c1c(OC(C)=O)cc(OC(C)CCCc3ccccc3)cc1N(C)C2C` (stereo unspecified) had a melting point of 120 to 122 °C. On to `C#Cc1cc(C(=O)NC(C)CCCc2cccnc2)ccc1-c1ccc(OC)c(OC)c1` (stereo unspecified), for which the melting point is 135 to 137 °C. As for `COc1cc(C=CC(=O)COc2ccccc2)ccc1O`, the melting point was in the range of 85 to 87 °C. The compound `CC1CN(c2ncc(C(=O)N(C)c3cccc(C(F)(F)F)c3)c(N)n2)C(=O)N1` (stereo unspecified) displayed a melting point of 237 to 238 °C. For the compound `Cc1ccc(S(=O)(=O)NC2CCCCC2NC(=O)OC(C)(C)C)cc1` (stereo unspecified), the melting point lay within 137 to 139 °C. Regarding `CCc1noc(-c2cn(-c3cccnc3)cn2)n1`, the melting point lay within 152 to 153 °C. The compound `Cc1cc2nc3ccc(C(N)=O)cn3c(=O)c2s1` displayed a melting point of 375 to 377 °C. The result for `CCOC(=O)C(=O)Nc1ccccn1` reads 73 to 75 °C. Regarding `CCCCOCCOc1ccc(-c2cc3c4c(c2)CCN4CCCC(C(=O)O)=C3)cc1`, the melting point lay in the range of 217 to 218 °C. Regarding `CC1(C)Oc2ccc(Br)cc2C(Oc2ccnc(O)c2)C1(C)O` (stereo unspecified), the melting point was 251 to 252 °C. Consider `Nc1nc(N)c2c(ccc3[nH]c4c(c32)CCCC4)n1`, for which the melting point lay within 300 to 303 °C.

`COc1ccc(Cc2nc3c(cnn3C(CCCc3ccccc3)C(C)=O)c(=O)[nH]2)cc1` (stereo unspecified) displayed a melting point of 129 °C. For `CC1(C)C(C=CC(=O)OCC(F)(F)F)C1C(=O)OC(C#N)c1ccc(F)c(Oc2ccccc2)c1` (stereo unspecified), the melting point came to 56 °C. In turn, `CNC(=S)N1CCc2nc(N)sc2C1` had a melting point of 188 to 190 °C.

With `CCOC(=O)C(C)N(c1ccc(S(=O)(=O)c2ccccc2)cc1C(F)(F)F)S(C)(=O)=O` (stereo unspecified), the melting point was 121 °C. For the compound `CCOC(=O)C(C)ON1CCNC1=Nc1c(Cl)cccc1Cl` (stereo unspecified), the melting point lay in the range of 79 to 80 °C. In turn, `CCS(=O)(=O)Nc1cc(-c2ncnc(C(F)(F)F)c2Cl)c(F)cc1C#N` returned a melting point of 191 to 194 °C. With `CC(=O)Nc1ccc(OC(F)(F)C(F)F)cc1` the figure was 121 to 122 °C; with `CC(CCl)(CCl)c1cc(Cl)nnc1Cl`, 92 to 94 °C.

`COC(=O)CN(C1c2cc(Cl)ccc2OC(C)(C)C1O)S(C)(=O)=O` (stereo unspecified) came in with a melting point of 148 to 150 °C. For the compound `CCCCC1(N(C)C)CC=C(c2[nH]c3ccccc3c2CCN2C(=O)c3ccccc3C2=O)CC1` (stereo unspecified), the melting point lay in the range of 125 to 130 °C. The compound `CC1(C)c2ccccc2-c2ccc(C3c4ccc(-c5ccc(-c6ccc(C=C(C#N)C(=O)O)s6)s5)c5c4C(CCC5)N3c3ccccc3)cc21` (stereo unspecified) registered a melting point of 251 °C.

As to `c1ccc2c(c1)NC(CN1CCOCC1)CO2` (stereo unspecified), the melting point is 117 to 121 °C. In the case of `CCn1c(=O)c2[nH]c(/C=C/c3ccc4c(c3)OCCO4)nc2n(CC)c1=O`, the melting point is over 300 °C. With `O=[N+]([O-])c1cc(S(=O)(=O)NC(CO)CO)sc1Cl`, the melting point turned out to be 132 °C.

Turning to `O=C(OCC1OC(n2ccc(=O)[nH]c2=O)CC1OC(=O)c1ccccc1)c1ccccc1` (stereo unspecified), the melting point fell in the range of 223 to 225 °C. In turn, `CCN1CCCC1CNC(=O)c1ccc2c(c1)C(=O)C1(CC1)O2` (stereo unspecified) gave a melting point of 161 to 166 °C.

For the compound `COc1ccc(S(=O)(=O)Nc2ccccc2NC(=O)c2cnccc2C)cc1`, the melting point was in the range of 199 to 200 °C. The compound `COc1cccc(Cc2snnc2-c2ccco2)c1` displayed a melting point of 80.6 to 82 °C. For `Nc1c(-c2cc(Cl)ccc2O)nnn1-c1ccc(Cl)cc1Cl`, the melting point was in the range of 131 to 136 °C. With `Nc1nc2ccccc2c2c1ncn2CCCCCC(=O)c1ccccc1` the figure was 163 to 165 °C; with `CCOC(=O)CN1C(=O)c2cccc3c(Cl)ccc1c23`, 138 to 140 °C. In turn, `CCC(CC)(CC)NC(=S)Nc1cc(Cl)cc(Cl)c1` gave a melting point of 152 to 154 °C. The compound `CCOC(=O)N1CCC(c2ccc(COc3ccc(S(C)(=O)=O)cc3)nc2)CC1` registered a melting point of 119 to 121 °C.

Compound `O=C(Cc1cccc([N+](=O)[O-])c1)c1c(O)c2cccnc2n(-c2ccccc2)c1=O` had a melting point of 157 to 161 °C. The compound `COC(=O)c1cccc(S(=O)(=O)Cc2c(O[C@H](Cn3ccnc3)c3ccccc3)ccc3c2CCCC3=O)c1` showed a melting point of 85 °C.

Turning to `N#CCc1cc(Br)ccc1Sc1ccccc1`, the melting point was in the range of 118 to 120 °C. `CN1C(=O)C(F)N=C(c2ccccc2F)c2cc(Cl)ccc21` (stereo unspecified) showed a melting point of 91 to 95 °C. `COc1cc(Br)c([N+](=O)[O-])cc1OC` had a melting point of 120 to 122 °C.

Compound `CC(O[Si](C)(C)C(C)(C)C)C1C(=O)NC1C1CCCC(OCCF)C1O` (stereo unspecified) yielded a melting point of 106 to 110 °C. For the compound `COc1ccc(C(=O)Nc2ccc(F)c(F)c2)cc1NCc1cccc(O)c1`, the melting point fell in the range of 160 to 163 °C. With `CCC(C)c1cc(Cl)cc(Cl)c1OCC(=O)N1CCSC1=S` (stereo unspecified) the figure was 96 °C. In the case of `CC(C)CNCc1cc2cc(NC(=O)c3ccc(OCC4CCOC4)cc3)ccc2n1C` (stereo unspecified), the melting point fell in the range of 125 to 126 °C. `CCc1cc2c(O)c(C(=O)O)cnc2s1` had a melting point of 238 to 239 °C. For the compound `N#CCc1c[nH]c2ccc(CS(=O)(=O)Oc3ccccc3)cc12`, the melting point lay within 134 to 135 °C.

Consider `CC(C)C1Nc2ccc(S(=O)(=O)N3CCCCC3)cc2S(=O)(=O)N1` (stereo unspecified), for which the melting point fell in the range of 237 to 239 °C.

Compound `CCOc1ccc(-n2c(N)cc(=O)nc2SC)cc1` had a melting point of 177 to 181 °C. `CCn1ccc(C(=O)c2sc(NC(=O)c3ccncc3)nc2-c2ccco2)cc1=O` showed a melting point of 277 to 281 °C. The result for `CCOC(=O)C1=C(C)NC(C=O)=C(C(=O)OCC)C1c1cccc(O)c1` (stereo unspecified) reads 142 °C.

`CCOC(=O)CC(=O)COCC1=C(C(=O)OCC)C(c2cccc(Cl)c2Cl)C(C(=O)OC)=C(C)N1` (stereo unspecified) displayed a melting point of 99 to 102 °C.

`CS(=O)(=O)Nc1cc(C(O)CNCCCCCCOCCCCOc2ccc3ccccc3c2)ccc1O` (stereo unspecified): the melting point lay within 99.5 to 100 °C. Consider `Nc1cccc(-c2ccc(C3CCNC3=O)cc2F)n1` (stereo unspecified), for which the melting point fell in the range of 185 to 188 °C. In the case of `COc1ccc(N2CCN(c3c(C)c(C=O)c4c(c3C)C(c3ccc(C)cc3)C(C)(C)O4)CC2)cc1` (stereo unspecified), the melting point was in the range of 175 to 177 °C. Consider `CON=C(C)C(C)=NOc1ccccc1C(=NOC)C(=O)OC`, for which the melting point lay within 93 to 94 °C. The compound `COCC(=O)N(CC(C)=NOC)c1c(C)cccc1C` returned a melting point of 56 to 57 °C.

The compound `Cc1cc(C(F)(F)C(F)(F)C(F)(F)C(F)(F)F)ccc1NC(=O)c1cccc(Br)c1C(=O)NC(C)C` came in with a melting point of 190 to 191 °C. For the compound `CN(C)CCOc1ccc2oc(-c3cc4ccccc4cn3)cc(=NO)c2c1`, the melting point lay in the range of 203 to 205 °C. `C[C@H](NC(=O)C[C@H](O)C[C@H](O)/C=C/c1c(C2CC2)nc2ccccc2c1-c1ccc(F)cc1)c1ccccc1` displayed a melting point of 57 to 76 °C. On to `c1ccc2c(c1)CCc1c(N3CCN(Cc4c[nH]c5ncccc45)CC3)n[nH]c1-2`, for which the melting point lay within 245 to 247 °C.
